Among the data in ChEMBL document CHEMBL5678818, “Discovery of potent SOS1 inhibitors that block RAS activation via disruption of the RAS-SOS1 interaction” (Proc Natl Acad Sci U S A, 2019) are Activity values, retold here.

In experiment [1] the target is T1, Serine/threonine-protein kinase RIO1 (Homo sapiens) (UniProt Q9BRS2).
T1 sequence (whole entry): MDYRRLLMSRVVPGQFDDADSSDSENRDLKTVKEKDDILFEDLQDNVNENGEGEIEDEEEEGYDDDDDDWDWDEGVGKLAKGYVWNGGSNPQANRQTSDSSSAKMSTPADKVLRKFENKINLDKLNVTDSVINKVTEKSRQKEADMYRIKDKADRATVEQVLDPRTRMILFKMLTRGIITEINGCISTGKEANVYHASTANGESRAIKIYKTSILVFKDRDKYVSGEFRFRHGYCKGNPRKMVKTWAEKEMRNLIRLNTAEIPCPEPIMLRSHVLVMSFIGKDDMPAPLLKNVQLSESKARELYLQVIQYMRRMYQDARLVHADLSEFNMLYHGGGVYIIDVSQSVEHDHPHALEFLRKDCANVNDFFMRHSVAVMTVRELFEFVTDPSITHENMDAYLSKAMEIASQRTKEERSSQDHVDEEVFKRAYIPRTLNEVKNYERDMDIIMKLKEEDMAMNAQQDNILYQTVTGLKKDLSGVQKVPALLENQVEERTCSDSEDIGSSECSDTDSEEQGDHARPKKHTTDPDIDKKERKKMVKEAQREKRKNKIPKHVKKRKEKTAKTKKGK
Nature of the experiment: Inhibition of RIOK1 (unknown origin) assessed as residual activity at 100 nM by KINOMEscan analysis relative to control.

The target of experiment [2] is Serine/threonine-protein kinase SIK2 (Homo sapiens) (UniProt Q9H0K1). Briefly: Inhibition of SIK2 (unknown origin) assessed as residual activity at 100 nM by KINOMEscan analysis relative to control.
Chain of Serine/threonine-protein kinase SIK2 (Homo sapiens) (Q9H0K1 whole entry, looked up): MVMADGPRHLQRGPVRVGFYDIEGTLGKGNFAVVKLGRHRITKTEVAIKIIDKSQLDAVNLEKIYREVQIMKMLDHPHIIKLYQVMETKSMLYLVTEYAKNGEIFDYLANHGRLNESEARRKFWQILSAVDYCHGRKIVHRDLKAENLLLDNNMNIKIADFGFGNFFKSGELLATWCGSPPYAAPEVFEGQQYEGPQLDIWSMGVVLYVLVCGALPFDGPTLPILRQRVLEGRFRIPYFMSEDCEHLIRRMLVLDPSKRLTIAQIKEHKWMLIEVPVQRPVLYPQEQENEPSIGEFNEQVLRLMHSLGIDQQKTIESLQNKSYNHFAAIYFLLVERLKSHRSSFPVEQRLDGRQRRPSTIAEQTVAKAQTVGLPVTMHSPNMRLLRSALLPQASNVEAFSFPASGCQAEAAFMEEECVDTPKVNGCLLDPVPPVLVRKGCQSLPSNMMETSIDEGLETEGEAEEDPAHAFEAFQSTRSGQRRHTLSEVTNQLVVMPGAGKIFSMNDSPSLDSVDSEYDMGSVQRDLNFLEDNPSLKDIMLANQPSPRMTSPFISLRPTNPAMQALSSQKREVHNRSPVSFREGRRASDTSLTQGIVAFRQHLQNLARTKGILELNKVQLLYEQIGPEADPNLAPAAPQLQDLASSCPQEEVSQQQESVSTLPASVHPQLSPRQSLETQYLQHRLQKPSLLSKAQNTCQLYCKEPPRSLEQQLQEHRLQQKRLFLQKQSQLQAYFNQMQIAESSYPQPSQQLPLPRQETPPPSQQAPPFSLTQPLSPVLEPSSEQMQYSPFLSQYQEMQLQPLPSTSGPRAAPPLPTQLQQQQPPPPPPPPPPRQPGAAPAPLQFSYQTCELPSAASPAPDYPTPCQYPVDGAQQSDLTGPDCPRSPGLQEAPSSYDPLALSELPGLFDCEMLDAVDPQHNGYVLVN
The target of experiment [3] is T2, Cyclin-G-associated kinase (Homo sapiens) (UniProt O14976).
T2 sequence (whole entry): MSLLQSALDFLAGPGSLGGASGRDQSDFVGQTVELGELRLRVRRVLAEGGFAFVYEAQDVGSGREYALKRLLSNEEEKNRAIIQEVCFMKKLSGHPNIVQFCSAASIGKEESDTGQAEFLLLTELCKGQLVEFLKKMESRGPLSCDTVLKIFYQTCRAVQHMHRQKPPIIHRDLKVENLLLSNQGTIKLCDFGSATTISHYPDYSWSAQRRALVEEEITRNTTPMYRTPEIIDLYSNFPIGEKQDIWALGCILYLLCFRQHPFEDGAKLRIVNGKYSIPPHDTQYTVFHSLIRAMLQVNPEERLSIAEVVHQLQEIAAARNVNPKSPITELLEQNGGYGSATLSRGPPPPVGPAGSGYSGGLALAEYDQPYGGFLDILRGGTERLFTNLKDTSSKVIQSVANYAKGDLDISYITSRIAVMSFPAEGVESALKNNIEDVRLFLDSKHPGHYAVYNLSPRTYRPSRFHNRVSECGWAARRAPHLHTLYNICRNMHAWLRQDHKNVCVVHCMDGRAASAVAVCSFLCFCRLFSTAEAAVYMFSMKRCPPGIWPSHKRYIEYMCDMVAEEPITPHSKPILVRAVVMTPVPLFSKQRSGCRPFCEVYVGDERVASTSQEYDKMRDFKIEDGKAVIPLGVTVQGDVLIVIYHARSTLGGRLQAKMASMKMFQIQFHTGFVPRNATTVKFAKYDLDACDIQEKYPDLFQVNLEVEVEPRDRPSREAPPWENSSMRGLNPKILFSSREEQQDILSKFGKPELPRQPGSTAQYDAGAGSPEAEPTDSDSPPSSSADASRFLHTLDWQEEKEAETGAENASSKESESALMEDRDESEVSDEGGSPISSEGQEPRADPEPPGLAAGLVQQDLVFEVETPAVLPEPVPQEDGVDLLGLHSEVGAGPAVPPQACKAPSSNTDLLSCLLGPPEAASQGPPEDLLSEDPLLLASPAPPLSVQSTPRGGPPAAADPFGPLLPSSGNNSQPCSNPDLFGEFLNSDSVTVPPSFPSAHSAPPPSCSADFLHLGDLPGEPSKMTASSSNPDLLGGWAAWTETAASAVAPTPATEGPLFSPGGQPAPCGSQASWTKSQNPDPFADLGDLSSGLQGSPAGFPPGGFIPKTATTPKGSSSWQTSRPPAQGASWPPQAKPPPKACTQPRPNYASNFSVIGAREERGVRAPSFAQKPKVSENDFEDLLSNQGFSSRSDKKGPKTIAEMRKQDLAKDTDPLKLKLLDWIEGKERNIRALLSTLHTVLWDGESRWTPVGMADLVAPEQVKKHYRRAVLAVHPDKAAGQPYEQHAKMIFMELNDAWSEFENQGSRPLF
Briefly: Inhibition of GAK (unknown origin) assessed as residual activity at 100 nM by KINOMEscan analysis relative to control.

For experiment [4], the target named is T3, Homeodomain-interacting protein kinase 4 (Homo sapiens) (UniProt Q8NE63).
T3 sequence (whole entry): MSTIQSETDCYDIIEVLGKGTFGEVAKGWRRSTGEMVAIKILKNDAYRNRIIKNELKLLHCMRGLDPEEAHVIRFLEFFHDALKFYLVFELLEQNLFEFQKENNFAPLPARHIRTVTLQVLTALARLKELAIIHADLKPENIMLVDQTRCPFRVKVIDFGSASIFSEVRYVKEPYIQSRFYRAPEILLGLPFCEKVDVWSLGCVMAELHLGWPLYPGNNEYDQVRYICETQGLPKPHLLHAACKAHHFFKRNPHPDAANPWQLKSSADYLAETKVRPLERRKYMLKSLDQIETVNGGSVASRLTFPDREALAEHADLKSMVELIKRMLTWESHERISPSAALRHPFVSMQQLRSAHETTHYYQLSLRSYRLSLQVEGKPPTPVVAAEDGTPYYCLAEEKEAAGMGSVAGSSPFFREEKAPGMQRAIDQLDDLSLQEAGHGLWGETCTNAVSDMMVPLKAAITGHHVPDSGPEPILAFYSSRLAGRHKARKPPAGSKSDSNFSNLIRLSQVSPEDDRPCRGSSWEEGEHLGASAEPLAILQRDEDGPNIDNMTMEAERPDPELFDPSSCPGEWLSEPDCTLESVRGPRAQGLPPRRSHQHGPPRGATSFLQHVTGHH
Briefly: Inhibition of HIPK4 (unknown origin) assessed as residual activity at 100 nM by KINOMEscan analysis relative to control.

Experiment [5] relates to Tyrosine-protein kinase ABL1 (Homo sapiens), P00519 [Q252H]. Briefly: Inhibition of nonphosphorylated ABL1 Q252H mutant (unknown origin) assessed as residual activity at 100 nM by KINOMEscan analysis relative to control.

Structures are written as SMILES.

Take `COc1cc2ncnc(N[C@H](C)c3cccc4ccccc34)c2cc1OC`: the Activity in experiment [1] came out at 58%; in experiment [2], 91%; in experiment [3], 100%; in experiment [4], 100%; in experiment [5], 100%.
